The text below walks through data of US20250136581A1, “SUBSTITUTED TRIAZOLE DERIVATIVE, PREPARATION METHOD THEREFOR, PHARMACEUTICAL COMPOSITION THEREOF, AND USE THEREOF” (SHANGHAI SIMR BIOTECHNOLOGY CO., LTD., priority 2021, published 2025).

Assay [1] concerns the target human α5β3γ2 receptors (α5-GABAA receptor) (Homo sapiens (Human), UniProt P18507+P31644). The assay can be described thus: 3H-flunitrazepam competition binding, human α5β3γ2 GABAA receptor. The following applies: HEK293 cell membranes, 1 nM 3H-flunitrazepam; read-out: α5-GABAAR Ki. In short, it runs like this: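 Radioligand displacement of 1 nM 3H-flunitrazepam from membranes of HEK293 lines stably expressing the human subtypes, 1 h at room temperature, compound in 8-point 4-fold series. Bound label on GF/C filters counted by scintillation; Ki derived from fitted IC50, with flumazenil as low control.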

The target of assay [2] is α5-GABAA receptor (α5, β3, γ2 subunits) (Homo sapiens (Human), UniProt P18507+P31644). The assay can be described thus: Whole cell patch clamp, inverse agonist efficacy in HEK293 cells expressing α5-GABAA receptor. The following applies: HEK293, drug 100 nM, GABA 0.05 μM, −60 mV; read-out: Compound inverse agonist efficacy %. In kind it is cell-based. The text has this: The inventors used electrophysiological methods to determine the inverse agonist efficacy of the drugs to be tested on the α5-GABAA receptor. The detailed methods are as follows:
Different subunits of the GABAA receptor were co-expressed in the HEK293 cell line to construct a fully functional GABAA receptor. The α, β, and γ subunits are essential to form a complete functional GABAA receptor. In this example, the present disclosure had established the following cell model: α5 subunit (see GenBank Accession No.: NM_000810.3 for protein sequences), β3 subunit (see GenBank Accession No.: NM_000814.5 for protein sequences), and γ2 subunit (see GenBank Accession No.: NM_000816.3 for protein sequences) were co-expressed in the HEK293 cell line, followed by screening the monoclonal stably transfected cell line. This cell line expressed a fully functional α5-GABAA receptor.
The monoclonal stably transfected HEK293 cell line expressing α5-GABAA receptor were cultured in 10 cm culture dishes and passaged when the cells grew to 80% to 90% confluent. During passaging, the culture medium was aspirated first, then 3 mL of DPBS phosphate buffer salt (Gibco™) was added to the culture dishes, and the culture dishes were shaken slightly, and DPBS was aspirated. 1 mL of trypsin (TrypLE Express, Gibco™) was added thereto, and the cells were digested at 37° C. for 1-2 minutes. Then 3 mL of complete medium (DMEM+10% FBS (Gibco™)) was added and the cells at the bottom of the culture dishes were dispersed. The cell suspension was transferred to a 15 mL centrifugal tube (Corning) and then centrifuged at 200 g for 3 minutes. The supernatant was discarded, 4 mL of complete medium was added, and the cells were gently blown and resuspended for use. If cell passaging was performed, the cell suspension was diluted at a ratio of 1:5 or 1:10. If cells for electrophysiological detection were prepared, the cell suspension was diluted in a ratio of 1:12, then added into a 24-well dish (Corning™) in which glass slides were placed and pretreated with Poly-D-Lysine, and the experiment was carried out after the cells adhered to the wall. The cells used for electrophysiology was cultured no more than 48 hours.
Drug concentration setting: The final drug concentration used in drug screening was 100 nM, and the GABA concentration was 0.05 μM. The whole cell patch clamp technique was used in electrophysiological assays, which could refer to the literature (I. Lecker, Y. Yin, D. S. Wang and B. A. Orser, British Journal of Anaesthesia, 2013, 110 (Si), i73-i81). The compositions of the extracellular solution for electrophysiology assay were as follows: 150 mM NaCl, 5 mM KCl, 2.5 mM CaCl2, 1 mM MgCl2, 10 mM HEPES, and 10 mM glucose (pH 7.4); the formulation of the electrode internal fluid for electrophysiology use was as follows: 140 mM CsCl, 11 mM EGTA, 10 mM HEPES, 2 mM CaCl2, 1 mM MgCl2, 4 mM MgATP, and 2 mM TEA (pH 7.3). The signal acquisition used an EPC-10 amplifier and the PatchMaster software (HEKA) or Axon700B amplifier and Clampex software (AXON). The recording electrode was pulled from borosilicate glass, and the electrode resistance was 4 to 6 MQ. The ALA-VC-8PG™ system was used for drug application. Single cell that grew independently was selected for recording. During recording, the cell membrane potential was clamped at −60 mV. During experiment, an extracellular solution was applied outside the cells for about 20 seconds. When the baseline reached to a stable state, the extracellular solution was switched to the GABA solution to induce an inward current. After about 20 to 40 seconds until the current was stable, the solution was switched to a corresponding drug solution to detect the effect of the drug. At last, the solution was switched to the extracellular solution, and the experiment was terminated when the baseline returned to the level before drug application. […]

In general, Ki refers to a dissociation constant, usually derived from enzyme kinetics or from competition with a known ligand. For the compound `Cc1nnn(-c2ccc(C(F)F)cc2)c1COc1ccc(N2CCN(CC#N)C(=O)C2)nn1` [Example 99, 2-(4-(6-((1-(4-(Difluoromethyl)phenyl)-4-methyl-1H-1,2,3-triazol-5-yl)methoxy)pyridazin-3-yl)-2-oxopiperazin-1-yl)acetonitrile], the Ki in assay [1] is 1.95 nM. Besides, the inhibition at 0.1 µM in assay [2] worked out at 48%.
For `Cc1nnn(-c2ccc(C(F)F)cc2)c1COc1ccc(N2CCN(CC3COC3)C(=O)C2)nn1` [Example 100, 4-(6-((1-(4-(Difluoromethyl)phenyl)-4-methyl-1H-1,2,3-triazol-5-yl)methoxy)pyridazin-3-yl)-1-(oxetan-3-ylmethyl)piperazin-2-one] the same measures were 1.54 nM and 54.6%.
For the compound `Cc1nnn(-c2ccc(C(F)F)cc2)c1COc1ccc(N2CC(C(=O)Nc3ccn(C)n3)C2)nn1` [Example 101, 1-(6-((1-(4-(Difluoromethyl)phenyl)-4-methyl-1H-1,2,3-triazol-5-yl)methoxy)pyridazin-3-yl)-N-(1-methyl-1H-pyrazol-3-yl)azetidine-3-carboxamide], the inhibition constant Ki in assay [1] came to 1.15 nM. Moreover, the inhibition at 0.1 µM in assay [2] was 43.9%.
For `Cc1nnn(-c2ccc(C(F)F)cc2)c1COc1ccc(N2CCN3CCN(C)C(=O)[C@@H]3C2)nn1` [Example 107, (S)-8-(6-((1-(4-(Difluoromethyl)phenyl)-4-methyl-1H-1,2,3-triazol-5-yl)methoxy)pyridazin-3-yl)-2-methyloctahydro-1H-pyrazino[1,2-a]pyrazin-1-one], the Ki in assay [1] is 15.6 nM. Besides, in assay [2], the inhibition at 0.1 µM stood at 49.2%.
Regarding `Cc1nnn(-c2ccc(C(F)F)cc2)c1COc1ccc(N2CCN(CCN3CCC(F)(F)C3)C(=O)C2)nn1` [Example 110, 4-(6-((1-(4-(Difluoromethyl)phenyl)-4-methyl-1H-1,2,3-triazol-5-yl)methoxy)pyridazin-3-yl)-1-(2-(3,3-difluoropyrrolidin-1-yl)ethyl)piperazin-2-one], the Ki in assay [1] amounted to 1.6 nM. Also, in assay [2], the inhibition at 0.1 µM turned out to be 47.5%.
Take `Cc1nnn(-c2ccc(C(F)F)cc2)c1COc1ccc(N2CCN(c3ccncc3)C(=O)C2)nn1` [Example 114, 4-(6-((1-(4-(Difluoromethyl)phenyl)-4-methyl-1H-1,2,3-triazol-5-yl)methoxy)pyridazin-3-yl)-1-(pyridin-pyridin-4-yl)piperazin-2-one]: the Ki in assay [1] was found to be 2.82 nM. Further, the inhibition at 0.1 µM in assay [2] was 51.3%.
In the same order, the values of `Cn1nnc(-c2ccc(F)cc2)c1COc1ccc(N2CCNC(=O)C2)nn1` [Example 128, 4-(6-((4-(4-Fluorophenyl)-1-methyl-1H-1,2,3-triazol-5-yl)methoxy)pyridazin-3-yl)piperazin-2-one] are 22.5 nM and 53.9%.
`Cc1nnn(-c2ccc(OC(F)F)cc2)c1COc1ccc(N2CCN3CCNC(=O)[C@@H]3C2)nn1` [Example 130, (S)-8-(6-((1-(4-(Difluoromethoxy)phenyl)-4-methyl-1H-1,2,3-triazol-5-yl)methoxy)pyridazin-3-yl)octahydro-2H-pyrazino[1,2-a]pyrazin-1(6H)-one]: the Ki in assay [1] stood at 17.1 nM. Further, the inhibition at 0.1 µM in assay [2] stood at 57%.
In the same order, the values of `O=C1CN(c2ccc(OCc3c(Cl)nnn3-c3ccc(C(F)F)cc3)nn2)CCN1` [Example 131, 4-(6-((4-Chloro-1-(4-(difluoromethyl)phenyl)-1H-1,2,3-triazol-5-yl)methoxy)pyridazin-3-yl)piperazin-2-one] are 1.34 nM and 47.6%.
With `O=C1CN(c2ccc(OCc3cnnn3-c3ccc(C(F)F)cc3)nn2)CCN1` [Example 132, 4-(6-((1-(4-(Difluoromethyl)phenyl)-1H-1,2,3-triazol-5-yl)methoxy)pyridazin-3-yl)piperazin-2-one], the Ki in assay [1] was 12.1 nM. For the same compound, the inhibition at 0.1 µM in assay [2] was found to be 53.2%.
Consider `COc1cc(N2CCNC(=O)C2)nnc1OCc1c(C)nnn1-c1ccc(C(F)F)cc1` [Example 134, 4-(6-((1-(4-(Difluoromethyl)phenyl)-4-methyl-1H-1,2,3-triazol-5-yl)methoxy)-5-methoxypyridazin-3-yl)piperazin-2-one], for which the Ki in assay [1] came to 1.5 nM. Besides, the inhibition at 0.1 µM in assay [2] was 45.7%.
`COCCN1CCN(c2ccc(OCc3c(C)nnn3-c3ccc(C(F)F)cc3)nn2)CC1=O` [Example 139, 4-(6-((1-(4-(Difluoromethyl)phenyl)-4-methyl-1H-1,2,3-triazol-5-yl)methoxy)pyridazin-3-yl)-1-(2-methoxyethyl)piperazin-2-one]: the Ki in assay [1] was 1.37 nM. Besides, the inhibition at 0.1 µM in assay [2] stood at 46.4%.
Regarding `COC(C)CN1CCN(c2ccc(OCc3c(C)nnn3-c3ccc(C(F)F)cc3)nn2)CC1=O` (stereo not drawn) [Example 141, 4-(6-((1-(4-(Difluoromethyl)phenyl)-4-methyl-1H-1,2,3-triazol-5-yl)methoxy)pyridazin-3-yl)-1-(2-methoxypropyl)piperazin-2-one], the Ki in assay [1] was found to be 4.27 nM. Besides, the inhibition at 0.1 µM in assay [2] came to 47.2%.
On to `Cc1nnn(-c2ccc(C(F)F)cc2)c1COc1ccc(N2CCN(CCCC#N)C(=O)C2)nn1` [Example 143, 4-(4-(6-((1-(4-(Difluoromethyl)phenyl)-4-methyl-1H-1,2,3-triazol-5-yl)methoxy)pyridazin-3-yl)-2-oxopiperazin-1-yl)butanenitrile], for which, in assay [1], the inhibition constant (Ki) came to 1.89 nM. For the same compound, the inhibition at 0.1 µM in assay [2] was 52.5%.
As to `Cc1nnn(-c2ccc(C(F)F)cc2)c1COc1ccc(N2CCN(CCCc3ccc(C#N)cc3)C(=O)C2)nn1` [Example 145, 4-(3-(4-(6-((1-(4-(Difluoromethyl)phenyl)-4-methyl-1H-1,2,3-triazol-5-yl)methoxy)pyridazin-3-yl)-2-oxopiperazin-1-yl)propyl)benzonitrile], in assay [1], the Ki came to 1.27 nM. In addition, in assay [2], the inhibition at 0.1 µM amounted to 69%.
For `O=C(O)c1ccc(CCCN2CCN(c3ccc(OCc4c(Cl)nnn4-c4ccc(C(F)F)cc4)nn3)CC2=O)cc1` [Example 146, 4-(3-(4-(6-((4-Chloro-1-(4-(difluoromethyl)phenyl)-1H-1,2,3-triazol-5-yl)methoxy)pyridazin-3-yl)-2-oxopiperazin-1-yl)propyl)benzoic acid], the Ki in assay [1] amounted to 4.44 nM. Moreover, in assay [2], the inhibition at 0.1 µM amounted to 56.5%.
Take `Cc1nnn(-c2ccc(C(F)F)cc2)c1COc1ccc(N2CCN3CCN(C4COC4)C(=O)[C@@H]3C2)nn1` [Example 147, (S)-8-(6-((1-(4-(Difluoromethyl)phenyl)-4-methyl-1H-1,2,3-triazol-5-yl)methoxy)pyridazin-3-yl)-2-(oxetan-3-yl)hexahydro-2H-pyrazino[1,2-a]pyrazin-1(6H)-one]: the Ki in assay [1] was determined as 6.55 nM. Moreover, in assay [2], the inhibition at 0.1 µM stood at 54.5%.
As for `Cc1nnn(-c2ccc(C(F)F)cc2)c1COc1ccc(N2CC(C(=O)N3CCCC(O)C3)C2)nn1` (stereo not drawn) [Example 154, (1-(6-((1-(4-(Difluoromethyl)phenyl)-4-methyl-1H-1,2,3-triazol-5-yl)methoxy)pyridazin-3-yl)azetidin-3-yl)(3-hydroxypiperidin-1-yl)methanone], in assay [1], the Ki turned out to be 5.26 nM. In assay [2], the inhibition at 0.1 µM came to 46.6%.
